Results on 3 substances are retold here after patent US7563862B2, “Neural regeneration peptides and methods for their use in treatment of brain damage” (Neuren Pharmaceuticals Limited, priority 2001, dated 2009).

Assay [1] has as its system mouse forebrain neural stem cells. Put plainly: neurosphere expansion assay, shift from symmetric to asymmetric division of neural stem cells. In kind it is cell-based. Conditions: nanomolar concentrations. The text has this: To determine whether NRPs could induce a shift of cells within neurospheres from symmetric (two stem cells, both stem cells) to asymmetric division of neural stem cells (1 stem cell, 1 neuronal progenitor or neuroblast cell), as has been described for erythropoietin (EPO) by Shingo et al. (2001), neurospheres were dissociated by trituration and seeded for expansion at a density of 200,000 cells/well in 6 well plates in NSA medium with EGF only, EGF plus varying concentrations of an NRP, or EGF plus 10 U/ml EPO. One half of the medium with fresh NRP compound was exchanged every other day. After 7 days the cells from the neurospheres were plated. In the presence of EGF, cells retain symmetric cell division. With the removal of EGF, cells begin to differentiate (asymmetric cell division). Subsequently, the cells were subjected to a differentiation assay as described below, with the exception that bFGF was not added to the plating medium for the initial 24 h and differentiation for 7 days was allowed in control medium without NRPs or other compounds. In cells that had never been exposed to an NRP, the numbers of neuroblast cells were lower than in cells that had been exposed to an NRP or EPO. Therefore, NRPs can increase the differentiation of undifferentiated stem cells into neuroblast cells.

A further assay deals with thalamocortical OTCs. Put plainly: thalamocortical OTC neuronal migration assay (cell bridge / cell chain). In kind it is cell-based, rat. An excerpt:
We developed a new assay system for identifying NRP having migration-inducing activity. The assay system was used following guidelines approved by the Gesundheitsamt Magdeburg animal ethics committee. Newborn Long Evans rats (P0) were killed by decapitation, and neural tissues were used for preparation of organotypic cultures (OTCs). Neocortical tissue (areas 17-18 according to the Paxinos rat atlas of the developing rat brain) and thalamic tissue from the dorsal thalamus (visual areas) were extracted. These areas represent the visual axis. The dorsal thalamus was accessed by an intersection cut to remove the hypothalamus. Subsequently, the thalamus was sliced frontally using a McIllwain tissue chopper into 350 μm thick slices. Using a dissecting microscope, the habenula nucleus served as a landmark to select only dorsal thalamic areas. Cortical tissues were cut using two sagittal and two frontal intersections in order to obtain areas 17-18 of the occipital cortex. Before the last frontal cut was made, the hippocampal formation was removed. The cortical tissues were sliced by a Mclllwain tissue chopper into 350 μm thick frontal slices and was incubated in Gey's balanced salt solution (GBSS) plus 0.65% D(+)glucose, and tissuesswere kept at 4° C. for at least 30-40 minutes for recovery.
For each assay, two slices of tissue, one cortical and one thalamic, were arranged at a distance at least about 3 mm from each other on a glass substrate (e.g., a cover slip; FIG. 1). The thalamus was oriented with the habenula nucleus facing cortical layer VI. The tissues were adhered to the substrate using a plasma clot (10 μl chicken plasma (Cocalico) coagulated with 10 μl thrombin (25 U/ml, ICN) and the tissues were subsequently cultured (cultivated) at 36° C. in a roller tube incubator as organotypic cultures using 2/4 BME/¼ HBSS (Invitrogen) medium supplemented with 25% heat-inactivated horse serum (Gaehwiler, 1981) plus 2 mM L0glutamine and 0.65% D-glucose. A 712.5 μl sample of prepared medium was supplemented with 37.5 μl of purified rat NRP-1 (SEQ ID NO:2) (in concentrated or diluted form) in 0.01 M sodium phosphate (pH 7.3) or phosphate alone (control). For the experiments using 600 ng/ml NRP-1, the peptide was concentrated 4 times by speed vacuum centrifugation. The medium containing NRP was changed every three days. After each study was completed, the tissues were fixed using conventional fixatives, and migrating neurons were analysed by immunocytochemistry.
Thus, any observations of neurite outgrowths or interconnecting cell bridges are due to the influence of factors added to the culture medium. […] Thus, in certain embodiments of this invention, NRPs can be identified and/or quantified. In other embodiments, NRPs amounts can be standardized, forming a basis for therapeutic application of NRPs to treat neurological diseases or conditions.
Migration of the thalamic neurons was determined after 3 days of co-culture in the presence of NRP. The migration distances were measured by a micrometer scaled-microscopic ocular, beginning from the tissue margin of the migrating cell stream. As a threshold value for the formation of a migrating cell chain was considered to be a number of at least 5 interconnected neurons. For the determination of the dose-response curve, the longest distance of a migrated neuron from the thalamic tissue margin was measured. Results are given as mean values+/− standard deviation.

In another assay the test system is wild-type PC-12 cells. The assay can be described thus: haptotactic migration assay, PC-12 cells. In kind it is cell-based. To be noted: 1 ng/ml coating followed by matrigel/PDL, 100,000 cells. As to the method: NRPs were tested for migration-inducing/chemoattractive activity on mouse neural stem cells, EGF-dependent immortalized mouse neural stem cell line MEB5 and wild-type PC-12 cells in a haptotactic migration assay as described below.
Initial NRP Coating. Control wells of Transwell plates (Coming) with 12 μm pore size were coated in 1.5 ml of the BSA/PBS vehicle. Remaining plates were coated using various concentrations of NRPs ranging between 1-100 ng/ml (prepared in PBS containing 10 ug/ml BSA). The plates were then incubated at 37° C. for 1 hr to coat. Wells were then rinsed 2× with 1 ml sterile PBS.
Laminin ([…]) for MEB-5 cells, PDL (50 μg/ml)+Matrigel for mouse primary stem cells and fibronectin (25 ug/ml)+matrigel for PC-12 cells were used as extracellular matrix (ECM) coating for the cells. All ECM compounds were diluted in PBS. 1.5 ml of the ECM per well was incubated for 2 hrs at room temperature. The wells were then rinsed once with Iml serum-free media (e.g. NB/B27) followed by 1 ml PBS wash.
A 5 ug/mL PDL/PLL mixture (in PBS) was used to coat inserts. Subsequently the inserts were rinsed with MilliQ water. […]

Ends that are not written are not given here. Some results are limits rather than exact numbers.

On to “KDPEARRAPGSLHPCLAAS-NH2 [NRP-2 segment KS, 19-mer fragment of NRP-2]”, for which the “production of neuronal progenitors” value in assay [1] is on record as “promoted the production of neuronal progenitors at the expense of multipotent stem cells”.
“NRP-1: rat 16 amino acid neural regeneration peptide purified from hippocampal OTC supernatant, Tyr Asp Pro Glu ... Cys His-NH2 (YDPEAASAPGSGNPCH-NH2)”: the “concentration at which neuronal migration was clearly detected” value in the assay with thalamocortical OTCs (2 ng/ml = 1 nM) turned out to be 2 ng/mL. Moreover, the “length of cell bridge between the thalamic and cortical tissues” value with thalamocortical OTCs (6 ng/ml (3 nM)) turned out to be 2500±240 μm. Besides, the “concentrations at which neuronal migration was not increased” value with thalamocortical OTCs (10-30 nM) is 20 to 60 ng/mL. For the same substance, in the assay on thalamocortical OTCs (NRP-1 supplemented co-cultures), the “interconnecting neurite network formed, time after cultivation start” value is at most 36 h. In the assay with thalamocortical OTCs (dose-response 2-600 ng/ml, 6 ng/ml = 3 nM), the “concentration producing the longest cell chain” value was found to be 6 ng/mL. Further, in the assay with thalamocortical OTCs (thalamocortical OTCs), the “concentration producing the greatest effect (migrating cell chain)” value turned out to be 3 nM.
For “SEPEARRAPGRKGGVVCASLAADW-NH2 [NRP-7 segment SW, 24-mer form of mouse NRP-7]”, the “more PC-12 cells migrated compared with BSA vehicle” value in the assay on wild-type PC-12 cells is given as 333%.
